Where no end group is shown, it is not given here. The star is where a group is joined. Biotin = O=C1N[C@H]2[C@H](CS[C@H]2CCCCC(=O)*)N1
Test system: pellicle-coated bovine enamel
Test: Phage ELISA on pellicle-coated bovine enamel, candidates from brushed 8 hr pellicle, Example 17
Type: binding, human
Settings: phage ELISA screened with 30 min in vivo pellicle; normalized to DenP3; no-phage control 0.094
Description: A total of 18 selected phage candidates were used in a phage ELISA Experiment. Purified phage lysates were used for binding to pellicle-coated bovine enamel using an anti-M13 phage antibody conjugated to horseradish-peroxidase, followed by the addition of chromogenic agent TMB, obtained from Pierce Biotechnology (Rockford, Ill.). The plates were read at A450nm.
The wells were rinsed 2 times with wash buffer consisting of PBST. The wells were filled with 1 mL of […] purified phage stock which was prepared by diluting in blocking buffer. […] The non-binding phage was removed by washing 5 times with PBST. Then, 500 μL of horseradish peroxidase/anti-M13 antibody conjugate (Amersham USA, Piscataway, N.J.), diluted 1:500 in the blocking buffer, was added and incubated for 45 min at room temperature. The conjugate solution was removed and was washed 5 times with PBST.

Row | Substance | O.D. at 450 nm (normalized)
1 | WHEPHQFSGENTDYSSSMGT [DenP109] | 0.716

Test system: pellicle-coated enamel substrates
Test: not given
Settings: 20 μM synthetic biotinylated peptide, 30 min at 37° C.; normalized to DenP03; three replicates; no peptide −0.001
Description: A total of 20 synthetic peptides were manufactured using sequences obtained from Table 14. Peptides were obtained from Synbiosci (Livermore, Calif.) and included an additional SSRP sequence (SEQ ID NO: 151) at the N-terminus and biotin labeled lysine at the C-terminus.
Enamel substrates were cut to approx. 7 mm squares and mounted on wax mounting for incubation in the mouth for 30 min to form a pellicle coated surface. The pellicle-coated enamel substrates were removed from the wax backing and placed in well plates with the pellicle surface exposed as in Example 1. Each pellicle-coated substrate was incubated for 1 h at room temperature (˜22° C.) with 1 mL of blocking buffer, consisting of 1 mg/mL BSA in PBST (Pierce BupH™ #28372 with 0.1% TWEEN® 20). The blocking buffer was removed by aspirating the liquid out of each well. The tube was rinsed 2 times with wash buffer consisting of PBST. The wells were filled with 500 μL of 20 μM peptide solution which was prepared by diluting in blocking buffer. The samples were incubated for 30 min with slow shaking at 37° C. The non-binding peptide was removed by washing 6 times with PBST. Then, 500 μL of horseradish peroxidase/streptavidin conjugate (Pierce #22127), diluted 1:2000 in PBST, was added and incubated for 1 h at room temperature. The conjugate solution was removed and was washed 4 times with PBST.
Each enamel substrate was removed from the well and washed again in a 15-mL test tube with 10 mL of PBST. Each enamel substrate was then mounted in a clean well plate with only the enamel surface exposed. A 1:1 solution of TMB substrate and H2O2 (200 μL), obtained from Pierce Biotechnology (Rockford, Ill.) was added to each well and the color was allowed to develop for between 10 to 20 min, typically for 15 min, at room temperature (˜22° C.). Then, 100 μL of solution from each well was transferred to a 96-well reading plate containing stop solution (100 μL of 2 M H2SO4) in each well. The A450 was measured using a microplate spectrophotometer (Molecular Devices, Sunnyvale, Calif.). […] Each sequence was tested with three replicate enamel coated pellicle substrates.

Row | Substance | O.D. at 450 nm (normalized)
2 | SSRPSEARARTFNDHTTPMPIIK(Biotin) [DenP14-A] | 0.269
3 | SSRPGPQHVLMQDTHQGYAFDNK(Biotin) [DenP16-A] | 0.309
4 | SSRPVNPNWVETQALHQPPGNTK(Biotin) [DenP20-A] | 0.590
5 | SSRPIYPNESMSTSNVRGPYHPK(Biotin) [DenP22-A] | 0.354
6 | SSRPHDPNHLTHQARTIYRNANHTK(Biotin) [DenP23-A] | 0.850
7 | SSRPFDGIGLGTATRHQNRK(Biotin) [DenP12-A] | 0.475
8 | SSRPQAAQVHMMQHSRPTTK(Biotin) [DenP13-A] | 0.699
9 | SSRPAPPTYQTASYPHNLPSKRKMK(Biotin) [DenP28-A] | 0.811
10 | SSRPELDHDSRHYMNGLQRKVTK(Biotin) [DenP15-A] | 0.460
11 | SSRPTYQGVPSWPAVIDDAIRRK(Biotin) [DenP19-A] | 0.712
12 | SSRPYLLPKDQTTAPQVTPIVQHKK(Biotin) [DenP5-A] | 0.462
13 | SSRPQVPDYLSPTHQKKAFLEIPTK(Biotin) [DenP29-A] | 0.468
14 | SSRPEFPYYNDNPPNPERHTLRK(Biotin) [DenP7-A] | 0.356
15 | SSRPVEPATKNMREARSSTQMRRIK(Biotin) [DenP4-A] | 0.803
16 | SSRPNGNNHTDIPNRSSYTGGSFAK(Biotin) [DenP1-A] | 0.154
17 | SSRPDLGTFPNRTLKMAAHK(Biotin) [DenP11-A] | 0.454
18 | SSRPTMTNHVYNSYTEKHSSTHRSK(Biotin) [DenP2-A] | 0.273
19 | SSRPTTGSSSQADTSASMSIVPAHK(Biotin) [DenP17-A] | 0.143

Reference: patent US8481678B2, “Peptide-based tooth whitening reagents” (E I du Pont de Nemours and Company, priority 2009, dated 2013)
